Measurements reported in PubChem BioAssay (NCI).
“And” between values parts separate entries of the source, which are not always exact repeats. Identical values can stand only once.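 All cell lines were grown in 96-well plates and treated with compound for 48 hours. The concentration for 50% growth inhibition is given as GI50. TGI denotes the concentration required for complete inhibition of growth.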

Experiments:
Assay in all cases: inhibition of tumour cell growth, NCI panel, 48 h
[1] = system: SNB-75 CNS
[2] = system: PC-3 prostate
[3] = system: DU-145 prostate
[4] = system: HT29 colon
[5] = system: SNB-19 CNS
[6] = system: 786-0 renal
[7] = system: SK-OV-3 ovarian
[8] = system: LOX IMVI melanoma
[9] = system: HOP-92 NSCLC
[10] = system: OVCAR-8 ovarian
[11] = system: CCRF-CEM leukemia
[12] = system: SF-268 CNS
[13] = system: SN12C renal
[14] = system: A498 renal
[15] = system: RXF 393 renal
[16] = system: EKVX NSCLC
[17] = system: U251 CNS
[18] = system: HL-60(TB) leukemia
[19] = system: SK-MEL-28 melanoma
[20] = system: TK-10 renal
[21] = system: K-562 leukemia
[22] = system: MALME-3M melanoma
[23] = system: NCI-H226 lung
[24] = system: OVCAR-5 ovarian
[25] = system: HCC-2998 colon
[26] = system: BT-549 breast
[27] = system: CAKI-1 renal
[28] = system: NCI-H460 lung
[29] = system: HCT-15 colon
[30] = system: NCI-H23 lung

With `Cc1ccc(NC(=O)c2ccc(CN3CC[C@H](N(C)C)C3)c(C(F)(F)F)c2)cc1Nc1nccc(-c2cncnc2)n1` the TGI [1] was 22.8 µM and > 10 µM, the GI50 [2] was 13.4 µM and > 10 µM and the TGI [2] was 35 µM and > 10 µM. For the same molecule, the GI50 [3] was 12 µM and > 10 µM, the TGI [3] was 29.6 µM and > 10 µM and the GI50 [4] was 0.606 µM and 0.637 µM. The TGI [4] was 15.7 µM and > 10 µM, the GI50 [5] was 10.9 µM and > 10 µM and the TGI [5] was 31.7 µM and > 10 µM. The GI50 [6] was 6.11 µM and 6.67 µM, the TGI [6] was 14.9 µM and > 10 µM and the GI50 [7] was 16 µM and > 10 µM. For the same molecule, the TGI [7] was 32.1 µM and > 10 µM, the GI50 [8] was 0.936 µM and 0.952 µM and the TGI [8] was 7.14 µM and > 10 µM. For the same molecule, the GI50 [9] was 5.1 µM and 1.66 µM, the TGI [9] was 22 µM and > 10 µM and the GI50 [10] was 13.8 µM and > 10 µM. The TGI [10] was 36.1 µM and > 10 µM, the GI50 [11] was 7.23 µM and 4.55 µM and the TGI [11] was 30.9 µM and > 10 µM. The GI50 [12] was 10.4 µM and > 10 µM, the TGI [12] was 28.5 µM and > 10 µM and the GI50 [13] was 14.2 µM and > 10 µM. For the same molecule, the TGI [13] was 34.4 µM and > 10 µM, the GI50 [14] was 12.1 µM and > 10 µM and the TGI [14] was 27.1 µM and > 10 µM. For the same molecule, the GI50 [15] was 11.9 µM and 9.4 µM, the TGI [15] was 27 µM and > 10 µM and the GI50 [16] was 14.6 µM and > 10 µM. The TGI [16] was 40 µM and > 10 µM, the GI50 [17] was 6.28 µM and 6.5 µM and the TGI [17] was 17.3 µM and > 10 µM. The GI50 [18] was 5.85 µM and 0.758 µM, the TGI [18] was 22.6 µM and > 10 µM and the GI50 [19] was 0.798 µM and 0.635 µM. The TGI [19] was 5.53 µM and > 10 µM, the GI50 [20] was 15 µM and > 10 µM and the TGI [20] was 28.4 µM and > 10 µM. The GI50 [21] was 0.00433 µM, the TGI [21] was 5.6 µM and > 10 µM and the GI50 [22] was 0.217 µM and 0.402 µM. For the same molecule, the GI50 [23] was 15.2 µM and > 10 µM, the TGI [23] was 36.6 µM and > 10 µM and the GI50 [24] was 5.5 µM and 6.04 µM. For the same molecule, the TGI [24] was 24.2 µM and > 10 µM, the GI50 [25] was 10.8 µM and > 10 µM and the TGI [25] was 28 µM and > 10 µM. For the same molecule, the GI50 [26] was 5.96 µM and > 10 µM, the TGI [26] was 13.3 µM and > 10 µM and the GI50 [27] was 9.06 µM and > 10 µM. For the same molecule, the TGI [27] was 27.4 µM and > 10 µM, the GI50 [28] was 2.99 µM and 8.15 µM and the TGI [28] was 9.95 µM and > 10 µM. For the same molecule, the GI50 [29] was 4.47 µM and 5.13 µM, the TGI [29] was 23.5 µM and > 10 µM and the GI50 [30] was 5.61 µM and 8.08 µM. For the same molecule, the TGI [30] was 26.5 µM and > 10 µM.
